#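 Each compound was tested at five concentrations against cells in 96-well plates for 48 hours. The concentration for full growth arrest is given as TGI.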
# Experiments:
# Test in all cases: growth of human tumour cells (NCI), 48 h
# [1] = tested on: 786-0 renal
# [2] = tested on: A498 renal
# [3] = tested on: A549 NSCLC
# [4] = tested on: ACHN renal
# [5] = tested on: CAKI-1 renal
# [6] = tested on: CCRF-CEM leukemia
# [7] = tested on: COLO 205 colon
# [8] = tested on: DLD-1 colon
# [9] = tested on: DMS 114 small cell lung
# [10] = tested on: DMS 273 small cell lung
# [11] = tested on: EKVX NSCLC
# [12] = tested on: HCC-2998 colon
# [13] = tested on: HCT-116 colon
# [14] = tested on: HCT-15 colon
# [15] = tested on: HOP-92 NSCLC
# [16] = tested on: HT29 colon
# [17] = tested on: IGROV1 ovarian
# [18] = tested on: K-562 leukemia
# [19] = tested on: KM12 colon
# [20] = tested on: KM20L2 colon
# [21] = tested on: LOX IMVI melanoma
# [22] = tested on: LXFL 529 NSCLC
# [23] = tested on: M14 melanoma
# [24] = tested on: MALME-3M melanoma
# [25] = tested on: MOLT-4 leukemia
# [26] = tested on: NCI-H226 lung
# [27] = tested on: NCI-H23 lung
# [28] = tested on: NCI-H460 lung
# [29] = tested on: OVCAR-3 ovarian
# [30] = tested on: OVCAR-4 ovarian
# [31] = tested on: OVCAR-5 ovarian
# [32] = tested on: OVCAR-8 ovarian
# [33] = tested on: SF-268 CNS
# [34] = tested on: SF-295 CNS
# [35] = tested on: SF-539 CNS
# [36] = tested on: SK-MEL-2 melanoma
# [37] = tested on: SK-MEL-28 melanoma
# [38] = tested on: SK-MEL-5 melanoma
# [39] = tested on: SK-OV-3 ovarian
# [40] = tested on: SN12C renal
# [41] = tested on: SNB-19 CNS
# [42] = tested on: SNB-75 CNS
# [43] = tested on: SNB-78 CNS
# [44] = tested on: SW-620 colon
# [45] = tested on: TK-10 renal
# [46] = tested on: U251 CNS
# [47] = tested on: UACC-257 melanoma
# [48] = tested on: UACC-62 melanoma
# [49] = tested on: UO-31 renal
# [50] = tested on: XF 498 CNS
# [51] = tested on: BT-549 breast
# [52] = tested on: DU-145 prostate
# [53] = tested on: HL-60(TB) leukemia
# [54] = tested on: HOP-62 NSCLC
# [55] = tested on: HS 578T breast
# [56] = tested on: MCF7 breast
# [57] = tested on: MDA-MB-231 breast
# [58] = tested on: MDA-MB-435
# [59] = tested on: MDA-N
# [60] = tested on: NCI-H522 lung
# [61] = tested on: NCI/ADR-RES ovarian
# [62] = tested on: PC-3 prostate
# [63] = tested on: RPMI-8226 leukemia
# [64] = tested on: RXF 393 renal
# [65] = tested on: SR leukemia
# [66] = tested on: T-47D breast
# [67] = tested on: M19-MEL melanoma
# [68] = tested on: HOP-18 NSCLC
smiles,measurement,setting,value
CC(C)OP(=S)(NC(=S)c1ccccc1)OC(C)C,TGI,[1],> 100 µM
same,TGI,[2],> 100 µM
same,TGI,[3],> 100 µM
same,TGI,[4],> 100 µM
same,TGI,[5],> 100 µM
same,TGI,[6],> 100 µM
same,TGI,[7],> 100 µM
same,TGI,[8],> 100 µM
same,TGI,[9],> 100 µM
same,TGI,[10],> 100 µM
same,TGI,[11],> 100 µM
same,TGI,[12],> 100 µM
same,TGI,[13],> 100 µM
same,TGI,[14],> 100 µM
same,TGI,[15],> 100 µM
same,TGI,[16],> 100 µM
same,TGI,[17],> 100 µM
same,TGI,[18],> 100 µM
same,TGI,[19],> 100 µM
same,TGI,[20],> 100 µM
same,TGI,[21],> 100 µM
same,TGI,[22],> 100 µM
same,TGI,[23],> 100 µM
same,TGI,[24],> 100 µM
same,TGI,[25],> 100 µM
same,TGI,[26],> 100 µM
same,TGI,[27],> 100 µM
same,TGI,[28],> 100 µM
same,TGI,[29],> 100 µM
same,TGI,[30],> 100 µM
same,TGI,[31],> 100 µM
same,TGI,[32],> 100 µM
same,TGI,[33],> 100 µM
same,TGI,[34],> 100 µM
same,TGI,[35],> 100 µM
same,TGI,[36],> 100 µM
same,TGI,[37],> 100 µM
same,TGI,[38],> 100 µM
same,TGI,[39],> 100 µM
same,TGI,[40],> 100 µM
same,TGI,[41],> 100 µM
same,TGI,[42],> 100 µM
same,TGI,[43],> 100 µM
same,TGI,[44],> 100 µM
same,TGI,[45],> 100 µM
same,TGI,[46],> 100 µM
same,TGI,[47],> 100 µM
same,TGI,[48],> 100 µM
same,TGI,[49],> 100 µM
same,TGI,[50],> 100 µM
C=C(C)[C@@H](O)[C@H](O)C[C@H](C)C1CC[C@]2(C)C1=CC[C@@H]1[C@@]3(C)CC[C@@H](OC(C)=O)C(C)(C)[C@@H]3C[C@@H](OC3OC(COC(C)=O)C(O)C(O)C3O)[C@]12C (stereo partly specified),TGI,[1],11.4 µM
same,TGI,[2],10.4 µM
same,TGI,[3],12.2 µM
same,TGI,[4],6.36 µM
same,TGI,[51],10.3 µM
same,TGI,[5],11.8 µM
same,TGI,[6],5.95 µM
same,TGI,[7],3.39 µM
same,TGI,[52],11.1 µM
same,TGI,[11],12.3 µM
same,TGI,[12],1.69 µM
same,TGI,[13],5.88 µM
same,TGI,[14],11.7 µM
same,TGI,[53],4.2 µM
same,TGI,[54],10.1 µM
same,TGI,[15],6.17 µM
same,TGI,[55],10 µM
same,TGI,[16],4.04 µM
same,TGI,[17],6.4 µM
same,TGI,[18],5.21 µM
same,TGI,[19],2.95 µM
same,TGI,[21],3.31 µM
same,TGI,[23],7.38 µM
same,TGI,[24],4.81 µM
same,TGI,[56],8.82 µM
same,TGI,[57],6.64 µM
same,TGI,[58],4.42 µM
same,TGI,[59],8.55 µM
same,TGI,[25],4.5 µM
same,TGI,[26],10.3 µM
same,TGI,[27],16.1 µM
same,TGI,[28],6.51 µM
same,TGI,[60],3.55 µM
same,TGI,[61],32 µM
same,TGI,[29],4.79 µM
same,TGI,[30],9.17 µM
same,TGI,[31],4.43 µM
same,TGI,[32],13.8 µM
same,TGI,[62],6.59 µM
same,TGI,[63],4.43 µM
same,TGI,[64],4.49 µM
same,TGI,[33],9.86 µM
same,TGI,[34],4.69 µM
same,TGI,[35],11.7 µM
same,TGI,[36],3.63 µM
same,TGI,[37],6.08 µM
same,TGI,[38],3.73 µM
same,TGI,[39],10.4 µM
same,TGI,[40],11.3 µM
same,TGI,[41],14.7 µM
same,TGI,[42],8.32 µM
same,TGI,[65],4.2 µM
same,TGI,[44],12.3 µM
same,TGI,[66],8.51 µM
same,TGI,[45],10.6 µM
same,TGI,[46],5.86 µM
same,TGI,[47],8.53 µM
same,TGI,[48],4.52 µM
same,TGI,[49],12.4 µM
Cc1[nH]c(=O)nc(N/N=C/c2ccc(O)cc2)c1C(=O)Nc1ccc(O)cc1,TGI,[1],> 100 µM
same,TGI,[2],> 100 µM
same,TGI,[5],> 100 µM
same,TGI,[6],> 100 µM
same,TGI,[7],> 100 µM
same,TGI,[8],> 100 µM
same,TGI,[9],> 100 µM
same,TGI,[10],> 100 µM
same,TGI,[12],> 100 µM
same,TGI,[13],> 100 µM
same,TGI,[53],> 100 µM
same,TGI,[54],> 100 µM
same,TGI,[15],> 100 µM
same,TGI,[17],> 100 µM
same,TGI,[18],> 100 µM
same,TGI,[22],> 100 µM
same,TGI,[23],> 100 µM
same,TGI,[67],> 100 µM
same,TGI,[24],> 100 µM
same,TGI,[25],> 100 µM
same,TGI,[26],> 100 µM
same,TGI,[27],> 100 µM
same,TGI,[28],> 100 µM
same,TGI,[60],> 100 µM
same,TGI,[30],> 100 µM
same,TGI,[63],> 100 µM
same,TGI,[33],> 100 µM
same,TGI,[35],> 100 µM
same,TGI,[36],> 100 µM
same,TGI,[37],> 100 µM
same,TGI,[39],> 100 µM
same,TGI,[40],> 100 µM
same,TGI,[42],> 100 µM
same,TGI,[43],> 100 µM
same,TGI,[65],> 100 µM
same,TGI,[48],> 100 µM
same,TGI,[49],> 100 µM
same,TGI,[50],> 100 µM
COc1ccc2c(c1)[n+]([O-])c(-c1cccc(Cl)c1)c(N)[n+]2[O-],TGI,[1],> 100 µM
same,TGI,[2],> 100 µM
same,TGI,[3],> 100 µM
same,TGI,[4],> 100 µM
same,TGI,[5],> 100 µM
same,TGI,[6],> 100 µM
same,TGI,[7],30.3 µM
same,TGI,[8],> 100 µM
same,TGI,[9],65.8 µM
same,TGI,[10],> 100 µM
same,TGI,[11],> 100 µM
same,TGI,[13],> 100 µM
same,TGI,[53],95.6 µM
same,TGI,[68],> 100 µM
same,TGI,[54],> 100 µM
same,TGI,[15],> 100 µM
same,TGI,[16],> 100 µM
same,TGI,[17],> 100 µM
same,TGI,[18],> 100 µM
same,TGI,[19],> 100 µM
same,TGI,[20],> 100 µM
same,TGI,[67],> 100 µM
same,TGI,[24],> 100 µM
same,TGI,[25],> 100 µM
same,TGI,[26],> 100 µM
same,TGI,[27],65.6 µM
same,TGI,[28],> 100 µM
same,TGI,[60],30.4 µM
same,TGI,[29],> 100 µM
same,TGI,[30],> 100 µM
same,TGI,[31],> 100 µM
same,TGI,[32],> 100 µM
same,TGI,[64],> 100 µM
same,TGI,[33],> 100 µM
same,TGI,[34],> 100 µM
same,TGI,[35],> 100 µM
same,TGI,[36],> 100 µM
same,TGI,[37],83 µM
same,TGI,[38],39.5 µM
same,TGI,[39],> 100 µM
same,TGI,[40],> 100 µM
same,TGI,[41],> 100 µM
same,TGI,[43],> 100 µM
same,TGI,[65],> 100 µM
same,TGI,[44],> 100 µM
same,TGI,[46],> 100 µM
same,TGI,[47],64.7 µM
same,TGI,[49],> 100 µM
same,TGI,[50],> 100 µM
